# Data reported in US20210323977A1, “PYRROLIDINYL AMIDE COMPOUNDS FOR THE TREATMENT OF AUTOIMMUNE DISEASE” (Hoffmann-La Roche Inc., priority 2018, published 2021).
# Target: T1, human TLR9 (Homo sapiens, UniProt Q9NR96)
# T1 sequence (Q9NR96 26-1032): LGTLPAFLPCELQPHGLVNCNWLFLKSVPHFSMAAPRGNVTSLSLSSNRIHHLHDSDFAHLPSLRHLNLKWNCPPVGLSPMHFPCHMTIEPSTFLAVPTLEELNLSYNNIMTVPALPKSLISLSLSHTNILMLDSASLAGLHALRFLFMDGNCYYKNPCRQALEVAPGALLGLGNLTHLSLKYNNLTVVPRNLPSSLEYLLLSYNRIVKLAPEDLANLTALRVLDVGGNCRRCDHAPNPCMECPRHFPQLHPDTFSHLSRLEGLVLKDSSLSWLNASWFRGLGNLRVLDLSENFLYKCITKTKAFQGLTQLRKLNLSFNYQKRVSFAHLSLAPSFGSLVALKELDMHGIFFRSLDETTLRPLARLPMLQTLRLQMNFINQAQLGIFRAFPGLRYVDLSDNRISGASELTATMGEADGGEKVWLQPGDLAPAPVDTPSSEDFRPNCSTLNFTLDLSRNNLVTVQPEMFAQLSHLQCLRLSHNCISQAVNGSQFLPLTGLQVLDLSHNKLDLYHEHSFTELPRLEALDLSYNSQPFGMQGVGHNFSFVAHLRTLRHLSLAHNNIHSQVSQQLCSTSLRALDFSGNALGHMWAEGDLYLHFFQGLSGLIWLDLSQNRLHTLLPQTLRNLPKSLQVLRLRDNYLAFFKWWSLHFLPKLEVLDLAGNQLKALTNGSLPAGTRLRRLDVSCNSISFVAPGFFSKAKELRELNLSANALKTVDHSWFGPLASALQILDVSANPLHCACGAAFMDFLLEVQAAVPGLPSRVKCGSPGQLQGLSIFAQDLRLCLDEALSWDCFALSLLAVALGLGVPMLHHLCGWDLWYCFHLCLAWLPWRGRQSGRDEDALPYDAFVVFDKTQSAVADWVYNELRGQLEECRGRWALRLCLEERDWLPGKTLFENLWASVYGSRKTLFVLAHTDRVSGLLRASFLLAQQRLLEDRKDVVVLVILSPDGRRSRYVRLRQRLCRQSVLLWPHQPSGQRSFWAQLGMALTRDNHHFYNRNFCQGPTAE
# Assay: HEK293-Blue-hTLR-9 cells assay
# Format: cell-based
# Settings: HEK293-Blue-hTLR9 cells, SEAP reporter, ODN2006 stimulation, 20 hrs
# Source text: HEK293-Blue-hTLR-9 Cells Assay:
# A stable HEK293-Blue-hTLR-9 cell line was purchased from InvivoGen (Cat. #: hkb-htlh9, San Diego, Calif., USA). These cells were originally designed for studying the stimulation of human TLR9 by monitoring the activation of NF-κB. A SEAP (secreted embryonic alkaline phosphatase) reporter gene was placed under the control of the IFN-β minimal promoter fused to five NF-κB and AP-1-binding sites. The SEAP was induced by activating NF-κB and AP-1 via stimulating HEK-Blue hTLR9 cells with TLR9 ligands. Therefore the reporter expression was declined by TLR9 antagonist under the stimulation of a ligand, such as ODN2006 (Cat. #: tlrl-2006-1, Invivogen, San Diego, Calif., USA), for incubation of 20 hrs. The cell culture supernatant SEAP reporter activity was determined using QUANTI-Blue™ kit (Cat. #: rep-qb1, Invivogen, San Diego, Calif., USA) at a wavelength of 640 nm, a detection medium that turns purple or blue in the presence of alkaline phosphatase.
# HEK293-Blue-hTLR9 cells were incubated at a density of 250,000-450,000 cells/mL in a volume of 170 μL in a 96-well plate in Dulbecco's Modified Eagle's medium (DMEM) containing 4.5 g/L glucose, 50 U/mL penicillin, […], […], 2 mM L-glutamine, 10% (v/v) heat-inactivated fetal bovine serum with addition of 20 sL test compound in a serial dilution in the presence of final DMSO at 1% and 10 sL of 20 uM ODN2006 in above DMEM, perform incubation under 37° C. in a CO2 incubator for 20 hrs. Then 20 sL of the supernatant from each well was incubated with 180 μL Quanti-blue substrate solution at 37° C. for 2 hrs and the absorbance was read at 620-655 nm using a spectrophotometer. The signalling pathway that TLR9 activation leads to downstream NF-x3B activation has been widely accepted, and therefore similar reporter assay was modified for evaluating TLR9 antagonist.
row,SMILES,IC50
1,"O=C(NC1CC2CNCC(C2)C1)C1CN(c2ccc(C(F)(F)F)c3nccnc23)CC12CC2 (centres unmarked) [Example 15, N-(3-azabicyclo[3.3.1]nonan-7-yl)-5-[8-(trifluoromethyl)quinoxalin-5-yl]-5-azaspiro[2.4]heptane-7-carboxamide]",7.3 µM
2,"C[C@@H]1CN(c2ccc(C#N)c3ncccc23)C[C@H]1C(=O)NC1CCCNCC1 (single isomer, unassigned) [Example 52A, Trans-N-(azepan-4-yl)-1-(8-cyano-5-quinolyl)-4-methyl-pyrrolidine-3-carboxamide]",12.3 µM
3,"CN(C)CC1CC(NC(=O)C2CN(c3ccc(C(F)(F)F)c4nccnc34)CC23CC3)C1 (centres unmarked) [Example 26, N-[3-[(dimethylamino)methyl]cyclobutyl]-5-[8-(trifluoromethyl)quinoxalin-5-yl]-5-azaspiro[2.4]heptane-7-carboxamide]",11.5 µM
4,"N#Cc1ccc(N2C[C@@H](C(F)(F)F)[C@H](C(=O)N[C@H]3CNC[C@H]3F)C2)c2cccnc12 [Example 47, Trans-1-(8-cyano-5-quinolyl)-N-[(3S,4R)-4-fluoropyrrolidin-3-yl]-4-(trifluoromethyl)pyrrolidine-3-carboxamide]",23.1 µM
5,"O=C(NC1CC2COCC(C1)N2)C1CN(c2ccc(C(F)(F)F)c3nccnc23)CC12CC2 (centres unmarked) [Example 6, N-(3-oxa-9-azabicyclo[3.3.1]nonan-7-yl)-5-[8-(trifluoromethyl)quinoxalin-5-yl]-5-azaspiro[2.4]heptane-7-carboxamide]",1.4 µM
6,"N[C@H]1CC[C@@H](NC(=O)C2CN(c3ccc(C(F)(F)F)c4nccnc34)CC23CC3)CC1 (some centres unmarked) [Example 39, N-(4-Aminocyclohexyl)-5-[8-(trifluoromethyl)quinoxalin-5-yl]-5-azaspiro[2.4]heptane-7-carboxamide]",21.1 µM
7,"N#Cc1ccc(N2CC(C(=O)NC[C@@H]3CNCCO3)C3(CC3)C2)c2nccnc12 (single isomer, unassigned) [Example 71A]",3.8 µM
8,"CN1CCC(NC(=O)[C@@H]2CN(c3ccc(Cl)c4ncccc34)C[C@H]2C(F)(F)F)CC1 (relative stereo) [Example 46, Trans-1-(8-chloro-5-quinolyl)-N-(1-methyl-4-piperidyl)-4-(trifluoromethyl)pyrrolidine-3-carboxamide]",15.6 µM
9,"N#Cc1ccc(N2CC(C(=O)NC[C@@H]3CNCCO3)C3(CC3)C2)c2nccnc12 (single isomer, unassigned) [Example 71B]",1.9 µM
10,"C[C@@H]1CN(c2ccc(C#N)c3ncccc23)C[C@H]1C(=O)N1CCC2(CCNC2)C1 (relative stereo) [Example 53, Trans-5-[3-(2,7-diazaspiro[4.4]nonane-2-carbonyl)-4-methyl-pyrrolidin-1-yl]quinoline-8-carbonitrile]",2.6 µM
11,"CN1CCC(NC(=O)C2CN(c3ccc(C(F)(F)F)c4nccnc34)CC23CC3)CC1 (centres unmarked) [Example 11, N-(1-methyl-4-piperidyl)-5-[8-(trifluoromethyl)quinoxalin-5-yl]-5-azaspiro[2.4]heptane-7-carboxamide]",1 µM
12,"N#Cc1ccc(N2CC(C(=O)NC3CCCNCC3)C(C(F)(F)F)C2)c2cccnc12 (single isomer, unassigned) [Example 30B, N-(azepan-4-yl)-1-(8-cyano-5-quinolyl)-4-(trifluoromethyl)pyrrolidine-3-carboxamide]",16.2 µM
13,"O=C(NC1CC2CNCC2C1)C1CN(c2ccc(C(F)(F)F)c3nccnc23)CC12CC2 (centres unmarked) [Example 21, N-(1,2,3,3a,4,5,6,6a-octahydrocyclopenta[c]pyrrol-5-yl)-5-[8-(trifluoromethyl)quinoxalin-5-yl]-5-azaspiro[2.4]heptane-7-carboxamide]",14 µM
14,"C[C@@H]1CN(c2ccc(C#N)c3ncccc23)C[C@H]1C(=O)N[C@H]1CNC[C@H]1F [Example 56, Trans-1-(8-cyano-5-quinolyl)-N-[(3S,4R)-4-fluoropyrrolidin-3-yl]-4-methyl-pyrrolidine-3-carboxamide]",18.6 µM
15,"CN1CCC(NC(=O)[C@@H]2CN(c3ccc(C#N)c4ncccc34)C[C@H]2C(F)(F)F)CC1 (relative stereo) [Example 17, Trans-1-(8-cyano-5-quinolyl)-N-(1-methyl-4-piperidyl)-4-(trifluoromethyl)pyrrolidine-3-carboxamide]",1 µM
16,"C[C@H]1CN(c2ccc(Cl)c3ncccc23)C[C@@H]1C(=O)NC1CCN(C)CC1 [Example 50, (3R,4R)-1-(8-chloro-5-quinolyl)-4-methyl-N-(1-methyl-4-piperidyl)pyrrolidine-3-carboxamide]",3.4 µM
17,"N[C@@H]1CCC[C@H](NC(=O)C2CN(c3ccc(C(F)(F)F)c4nccnc34)CC23CC3)C1 (relative stereo) [Example 43, Cis-N-(3-aminocyclohexyl)-5-[8-(trifluoromethyl)quinoxalin-5-yl]-5-azaspiro[2.4]heptane-7-carboxamide]",17.9 µM
18,"Cc1ccc(N2C[C@H](C(=O)NC3CCN(C)CC3)[C@@H](C)C2)c2nccnc12 [Example 33, (3R,4R)-4-Methyl-N-(1-methyl-4-piperidyl)-1-(8-methylquinoxalin-5-yl)pyrrolidine-3-carboxamide]",30.2 µM
19,"CN1CCC(NC(=O)C2CN(c3ccc(C#N)c4nccnc34)CC23CC3)CC1 (single isomer, unassigned) [Example 7A, 5-(8-Cyanoquinoxalin-5-yl)-N-(1-methyl-4-piperidyl)-5-azaspiro[2.4]heptane-7-carboxamide]",3.2 µM
20,"CN1CCC(NC(=O)C2CN(c3ccc(C#N)c4ncccc34)CC2C(F)(F)F)CC1 (centres unmarked) [Example 18, 1-(8-Cyano-5-quinolyl)-N-(1-methyl-4-piperidyl)-4-(trifluoromethyl)pyrrolidine-3-carboxamide]",10.8 µM
21,C[C@@H]1CN(c2ccc(C#N)c3ncccc23)C[C@H]1C(=O)NC1CCN(C)CC1 (relative stereo) [Example 28],6.4 µM
22,"C[C@@H]1CN(c2ccc(C#N)c3ncccc23)C[C@H]1C(=O)N1CCC2(CCNCC2)CC1 (relative stereo) [Example 32, Trans-5-[3-(3,9-diazaspiro[5.5]undecane-3-carbonyl)-4-methyl-pyrrolidin-1-yl]quinoline-8-carbonitrile]",2.4 µM
23,"C[C@@H]1CN(c2ccc(C#N)c3ncccc23)C[C@H]1C(=O)NC1CCCNCC1 (single isomer, unassigned) [Example 52B, Trans-N-(azepan-4-yl)-1-(8-cyano-5-quinolyl)-4-methyl-pyrrolidine-3-carboxamide]",11.6 µM
24,"O=C(NC1CC2CCC(C1)N2)C1CN(c2ccc(C(F)(F)F)c3nccnc23)CC12CC2 (centres unmarked) [Example 23, N-(8-azabicyclo[3.2.1]octan-3-yl)-5-[8-(trifluoromethyl)quinoxalin-5-yl]-5-azaspiro[2.4]heptane-7-carboxamide]",10.4 µM
25,"CN1CCC(NC(=O)[C@H]2CN(c3ccc(C#N)c4ncccc34)C[C@@H]2C(F)(F)F)CC1 [Example 4, (3R,4R)-1-(8-cyano-5-quinolyl)-N-(1-methyl-4-piperidyl)-4-(trifluoromethyl)pyrrolidine-3-carboxamide]",9.9 µM
26,"N#Cc1ccc(N2CC(C(=O)NC[C@H]3CNCCO3)C3(CC3)C2)c2nccnc12 (single isomer, unassigned) [Example 70A]",6.9 µM
